Reference: patent US20150104415A1, “Treatments of Hepatitis C virus infection” (DEBIOPHARM INTERNATIONAL SA, priority 2011, published 2015)

Tested on: HCV GT1
Assay: Randomized, double-blind, placebo-controlled phase II study of DEB025 plus SOC (peg-IFNα2a plus RBV); virologic response by HCV RNA
Assay type: in vivo, patients
Procedure: This is an international, multicentre, randomized, double-blind, placebo-controlled, 4-arm, parallel-group phase II study comparing therapy with three doses of DEB025 (600 mg QD, 800 mg QD and 400 mg BID) plus SOC (peg-IFNα2a once weekly plus RBV BID) versus triple therapy with placebo matching DEB025 plus SOC in chronic HCV GT1 patients who were non-responders to prior SOC treatment, or who have relapsed after SOC treatment.
Approximately 344 patients will be randomized into one of 4 treatment arms (A, B, C (C1/C2) and D) in a 1:1:1:1 ratio. C1 and C2 patients will be randomized in a 1:1 ratio within arm C.
The randomization will be stratified by response status to previous treatment (non-responders/relapsers), BMI (<25 kg/m2 or ≧25 kg/m2) and IL28B polymorphism (CC or CT/TT) at screening.
The ratio non-responders and relapsers should be kept at 50% (172 patients) of the study population. An international, multicentre, randomized, double-blind, placebo-controlled, 4-arm, parallel-group phase II study comparing triple therapy with three doses of alisporivir (400 mg, 600 mg or 800 mg)+standard of care (SOC) versus triple therapy with placebo matching alisporivir plus SOC in […] chronic HCV GT1 patients who were non-responders to prior SOC treatment, or relapsers after SOC treatment is provided.
Patients are randomized into one of 4 treatment arms as described below in a 1:1:1:1 ratio. The randomization will be stratified by response status to previous treatment (non-responders/relapsers), BMI (<25 kg/m2 or ≧25 kg/m2) and IL28B polymorphism (CC or CT/TT) at screening. The ratio non-responders and relapsers should be kept at 50% (172 patients) of the study population.
• Alisporivir/Placebo 3 capsules of 200 mg (600 mg) alisporivir 2×/day (BID) orally for 1 week (loading dose) followed by 3 capsules of 200 mg (600 mg) alisporivir once per day (QD) plus 1 capsule of placebo QD for 47 weeks. Only in week 17 (dummy loading) patients receive 3 capsules of 200 mg (600 mg) alisporivir in the morning and 3 capsules of placebo in the evening. • Peg-IFNα2a 180 μg subcutaneously (s.c.) once weekly for 48 weeks • Ribavirin 1000 mg/day (<75 kg) or 1200 mg/day (≧75 kg) orally in two divided doses for 48 weeks
• alisporivir/Placebo 3 capsules of 200 mg (600 mg) alisporivir 2×/day orally for 1 week (loading dose) followed by 4 capsules alisporivir (800 mg) QD for 47 weeks. Only in week 17 (dummy loading) patients receive 3 capsules of 200 mg (600 mg) alisporivir in the morning and 1 capsule of 200 mg alisporivir plus 2 capsules of placebo in the evening. • Peg-IFNα2a 180 μg subcutaneously (s.c.) once weekly for 48 weeks • Ribavirin 1000 mg/day (<75 kg) or 1200 mg/day (≧75 kg) orally in two divided doses for 48 weeks Treatment C1 (will change to active treatment if cEVR not reached=arm C1A) • Placebo 3 capsules of placebo BID orally for 1 week (loading dose) followed by 4 capsules placebo QD for 47 weeks. […]
• Placebo alisporivir 1 capsule of placebo QD (in the morning) orally for 48 weeks 2 capsules of 200 mg (400 mg) alisporivir 2×/day orally for 48 weeks
• 180 μg s.c. once weekly for 48 weeks • Ribavirin 1000 mg/day (<75 kg) or 1200 mg/day (≧75 kg) orally in two divided doses for 48 weeks Treatment C2 (will change to active treatment if cEVR not reached=arm C2A) • DEB025 placebo 3 capsules of placebo orally in the morning and 2 capsules of placebo in the evening for 48 weeks. • Peg-IFNα2a 180 μg s.c. once weekly for 48 weeks • Ribavirin 1000 mg/day (<75 kg) or 1200 mg/day (≧75 kg) orally in two divided doses for 48 weeks
• Placebo 3 capsules of placebo orally as morning dose and 2 capsules of placebo as evening dose for 16 weeks. […]

[1] = Arm A, DEB 600 QD plus peg-IFNα2a/RBV, N = 81
[2] = Arm B, DEB 800 QD plus peg-IFNα2a/RBV, N = 84
[3] = Arm D, DEB 400 BID plus peg-IFNα2a/RBV, N = 78
[4] = DEB 400 BID arm plus SOC, Week 12

C/C=C/C[C@@H](C)[C@@H](O)[C@H]1C(=O)N[C@@H](CC)C(=O)N(C)[C@H](C)C(=O)N(CC)[C@@H](C(C)C)C(=O)N[C@@H](C(C)C)C(=O)N(C)[C@@H](CC(C)C)C(=O)N[C@@H](C)C(=O)N[C@H](C)C(=O)N(C)[C@@H](CC(C)C)C(=O)N(C)[C@@H](CC(C)C)C(=O)N(C)[C@@H](C(C)C)C(=O)N1C [DEB025, alisporivir]
RVR (rapid virologic response): patients with HCV RNA < LOQ (25 IU/mL) after 4 weeks of treatment (Arm A, DEB 600 QD (600 mg BID 1 week loading) plus peg-IFNα2a/RBV, N = 81, GT1 relapsers/non-responders): 19 (23.5) n (%)
EVR: HCV RNA decrease >= 2 log10 from baseline or < LOQ (25 IU/mL) after 12 weeks [1]: 64 (79.0) n (%)
cEVR (complete early virologic response, primary endpoint): HCV RNA < LOQ (25 IU/mL) after 12 weeks [1]: 36 (44.4) n (%)
pEVR (partial early virologic response): HCV RNA decrease >= 2 log10 from baseline and > LOQ (25 IU/mL) after 12 weeks [1]: 28 (34.6) n (%)
RVR (rapid virologic response): patients with HCV RNA < LOQ (25 IU/mL) after 4 weeks of treatment (Arm B, DEB 800 QD (600 mg BID 1 week loading) plus peg-IFNα2a/RBV, N = 84): 18 (21.4) n (%)
EVR: HCV RNA decrease >= 2 log10 from baseline or < LOQ (25 IU/mL) after 12 weeks [2]: 72 (85.7) n (%)
cEVR (complete early virologic response, primary endpoint): HCV RNA < LOQ (25 IU/mL) after 12 weeks [2]: 48 (57.1) n (%)
pEVR (partial early virologic response): HCV RNA decrease >= 2 log10 from baseline and > LOQ (25 IU/mL) after 12 weeks [2]: 24 (28.6) n (%)
EVR: HCV RNA decrease >= 2 log10 from baseline or < LOQ (25 IU/mL) after 12 weeks [3]: 63 (80.8) n (%)
RVR (rapid virologic response): patients with HCV RNA < LOQ (25 IU/mL) after 4 weeks of treatment [3]: 29 (37.2) n (%)
cEVR (complete early virologic response, primary endpoint): HCV RNA < LOQ (25 IU/mL) after 12 weeks [3]: 55 (70.5) n (%)
pEVR (partial early virologic response): HCV RNA decrease >= 2 log10 from baseline and > LOQ (25 IU/mL) after 12 weeks [3]: 8 (10.3) n (%)
proportion achieving RVR (DEB 400 BID arm plus SOC, Week 4): 37.2%
proportion achieving EVR [4]: 80.8%
proportion achieving cEVR [4]: 70.5%
patients achieved RVR (Week 4, all the DEB025 treatment arms (600 QD, 800 QD, 400 BID) plus SOC): > 20%
patients achieved EVR (Week 12, all the DEB025 treatment arms (600 QD, 800 QD, 400 BID) plus SOC): ≥ 79%
